Measured values published in US7012095B2, “Compounds for modulating cell proliferation” (HSC Research and Development Limited, priority 2000, dated 2006).

Experiments:
normal bone marrow cells [1] = assay: CFU-GEMM assay, normal bone marrow differentiation in culture; assay type: cell-based; settings: 14 days
Description: The CFU-GEMM assay was performed according to Fauser and Messner (1978, Blood, 52(6) 143–8) and Messner and Fausser (1980, Blut, 41(5) 327–33) with some variations. In brief, heparinized bone marrow cells were layered over Percoll (1.077 gm/ml) (Pharmacia Fine Chemical, Piscataway N.J.) and centrifuged at 400 g at 4° C. for 10 minutes to remove neutrophils and RBCs. The fractionated BM cells at 2×10^5 cells/ml were cultured in IMDM (OCI, Toronto) containing 0.9% (vol/vol) methylcellulose supplemented with 30% FCS (Cansera Rexdale, ON.) or normal human plasma, a cocktail of cytokines containing G-CSF (10 ng/ml, Amgen), IL-3 (40 U/ml, Immunex), MGF (50 ng/ml, Immunex), Erythropoietin (2 u/ml, Epprex) or TPO (10 ng/ml, Amgen), 5×10^−5M β-2-mercaptoethanol and the specified concentration of CR4. The culture mixture was plated in 1 ml volumes into 35 mm petri dishes and incubated at 37° C., 5% CO2 in a humidified atmosphere. All cultures were evaluated at 14 days for the number of BFU-E colonies (defined as aggregates of more than 500 hemoglobinized cells or, 3 or more erythroid subcolonies), CFU-GM colonies (defined as granulocyte or monocyte-macrophage cells or both), CFU-Meg colonies (comprising 4 or more megakaryocytes) and CFU-GEMM colonies (a mixed population comprising of all elements).
The CFU-GEMM assay was performed according to Fauser and Messner (1978, Blood, 52(6) 1243–8) and Messner and Fausser (1980, Blut, 41(5) 327–33) with some variations. In brief, heparinized bone marrow cells were layered over Percoll (1.077 gm/ml) (Pharmacia Fine Chemical, Piscataway N.J.) and centrifuged at 400 g at 4° C. for 10 minutes to remove neutrophils and RBCs. […] All cultures were evaluated at 14 days for the number of BFU-E colonies (defined as aggregates of more than 500 hemaglobinized cells or, 3 or more erythroid subcolonies) and CFU-C colonies (defined as granulocyte or monocyte-macrophage cells or both).
The CFU-GEMM assay was performed according to Fauser and Messner (1978, Blood, 52(6) 1243–8) and Messner and Fausser (1980, Blut, 41(5) 327–33) with some variations (British Journal of Haematology, 1992, 80, p40–48). […] All cultures were evaluated at 14 days for the number of BFU-E colonies (defined as aggregates of more than 500 hemoglobinized cells or, 3 or more erythroid subcolonies) and CFU-C colonies (defined as granulocyte or monocyte-macrophage cells or both).

[2] = test system: variety of cancer cells (ALL, Philadelphia positive ALL, acute myeloid leukemia, myeloma, B-lineage lymphoma); assay: Cancer cell growth in culture, summary statements; assay type: cell-based; settings: for efficacy against a variety of cell types (Acute Lymphoblastic Leukemia, Philadelphia positive Leukemia, Acute Myeloid Leukemia): in culture
normal bone marrow cells [3] = assay: In vitro purging of normal bone marrow; assay type: cell-based; settings: 50 μM, seven hours exposure, FIG. 21
Description: Heparinized bone marrow cells were layered over Percoll (1.077 gm/ml) (Pharmacia Fine Chemical, Piscataway N.J.) and centrifuged at 400 g at 4° C. for 10 minutes to remove neutrophils and RBCs.
For the purging process, the cells were resuspended at 1×10^6/ml in complete medium with or without 50 μM CR4. The cells were incubated with the CR4 for two and a half hours at 37° C., 5% CO2. At the end of this period the cells were thoroughly washed in medium to remove CR4 and then cultured at 2×10^5 cells/ml in IMDM (OCI, Toronto) containing 0.9% (vol/vol) methylcellulose supplemented with 30% FCS (Cansera Rexdale, ON.) or normal human plasma, a cocktail of cytokines containing G-CSF (10 ng/ml, Amgen), IL-3 (40 U/ml, Immunex), MGF (50 ng/ml, Immunex), Erythropoietin (2 u/ml, Epprex) or TPO (10 ng/ml, Amgen) and 5×10^−5M b-2-mercaptoethanol. The culture mixture was plated in 1 ml volumes into 35 mm petri dishes and incubated at 37° C., 5% CO2 in a humidified atmosphere. All cultures were evaluated at 14 days for the number of BFU-E colonies (defined as aggregates of more than 500 hemaglobinized cells or, 3 or more erythroid subcolonies), CFU-C colonies (defined as granulocyte or monocyte-macrophage cells or both) and CFU-GEMM colonies (a mixed population comprising of all elements).
For the purging process, the cells were resuspended at 1×10^6/ml in complete medium with or without 50 μM CR11. The cells were incubated with the tryrphostin for seven hours at 37° C., 5% CO2. At the end of this period the cells were thoroughly washed in medium to remove CR11 and then cultured at 2×10^5 cells/ml in IMDM (OCI, Toronto) containing 0.9% (vol/vol) methylcellulose supplementd with 30% FCS (Cansera Rexdale, ON.) or normal human plasma, a cocktail of cytokines containing G-CSF (10 ng/ml, Amgen), IL-3 (40 U/ml, Immunex), MGF (50 ng/ml, Immunex), Erythropoietin (2 u/ml, Epprex) or TPO (10 ng/ml, Amgen) and 5×10^−5M β-2-mercaptoethanol. The culture mixture was plated in 1 ml volumes into 35 mm petri dishes and incubated at 37° C., 5% CO2 in a humidified atmosphere. All cultures were evaluated at 14 days for the number of BFU-E colonies (defined as aggregates of more than 500 hemoglobinized cells or, 3 or more erythroid subcolonies), CFU-C colonies (defined as granulocyte or monocyte-macrophage cells or both) and CFU-GEMM colonies (a mixed population comprising of all elements).

[4] = test system: Philadelphia positive ALL, AML and lymphoma; assay: In vitro / ex vivo purging assays, summary statements; assay type: cell-based
Ph+ ALL cells = assay: Killing of Philadelphia positive ALL cells in methylcellulose colony culture; assay type: cell-based, human
Description: Ph+ ALL cells were plated in 1 ml volumes, in the absence of exogenous growth factors, into 35 mm petri dishes (Nunc, Gibco) containing alpha MEM (Gibco) plus 10% FCS (Cansera Rexdale, ON.) in 0.9% (vol/vol) methylcellulose (Fluka, Switzerland) with the indicated concentrations of CR4. Cultures were set at 37° C., 5% CO2 in a humidified atmosphere. Colonies consisting of more than 20 cells were counted at 12 days or earlier using an inverted microscope.
ALL cells were plated in 1 ml volumes, in the absence of exogenous growth factors, into 35 mm petri dishes (Nunc, Gibco) containing alpha MEM (Gibco) plus 20% FCS (Cansera Rexdale, ON.) in 0.9% (vol/vol) methylcellulose (Fluka, Switzerland) and the indicated concentrations of compound. Cultures were set at 37° C., 5% CO2 in a humidified atmosphere. Colonies consisting of more than 20 cells were counted at 12 days or earlier using an inverted microscope.
ALL cells were plated in 1 ml volumes, in the absence of exogenous growth factors, into 35 mm petri dishes (Nunc, Gibco) containing alpha MEM (Gibco) plus 20% FCS (Cansera Rexdale, ON.) in 0.9% (vol/vol) methylcellulose (Fluka, Switzerland) and the indicated concentrations of CR24. Cultures were set at 37° C., 5% CO2 in a humidified atmosphere. Colonies consisting of more than 20 cells were counted at 9 days or earlier using an inverted microscope. […]

## N#C/C(=C\C=C\c1ccccc1)C(=O)NCc1ccc(O)c(O)c1 [CR19, (E,E)-2-(3,4 Dihydroxybenzylamido)-3-styrylacrylonitrile]
Normal bone marrow cells [1]; 5 μM, FIG. 12
  stimulatory effect on CFU-C colony formation: disappeared
[2]
  efficacy against a variety of cell types (Acute Lymphoblastic Leukemia, Philadelphia positive Leukemia, Acute Myeloid Leukemia): highly effective
[2]; low nanomolar doses, long term exposure
  toxicity to cancer cells: highly toxic

## COc1cc(/C=C/C=C(\C#N)C(=O)NCc2ccc(O)c(O)c2)cc(OC)c1O [CR11, (E,E)-2-(3,4-Dihydroxybenzylamido)-3-(3,5-dimethoxy-4-hydroxystyryl)acrylonitrile]
Normal bone marrow cells [3]; 14 days
  inhibition of colony formation: did not result in any significant inhibition
Normal bone marrow cells [3]
  BFU-E, CFU-GEMM and CFU-C colonies: all normal
[2]
  efficacy against a variety of cell types (Acute Lymphoblastic Leukemia, Philadelphia positive Leukemia, Acute Myeloid Leukemia): highly effective
[4]
  efficacy as ex vivo purging agents: effective

## COc1cc(/C=C/C=C(\C#N)C(=O)NCCO)cc(OC)c1O [CR24, (E,E)-2-(β-Ethanolamido)-3-(3,5-dimethoxy-4-hydroxystyryl)acrylonitrile]
Ph+ ALL cells; colonies at 9 days, FIG. 10
  lowest concentration effective against Ph+ ALL cells: 0.5 µM

## N#C/C(=C\C=C\c1ccc(O)c(O)c1)C(=O)NCc1ccc(O)c(O)c1 [CR21, (E,E)-2-(3,4 Dihydroxybenzylamido)-3-(3,4-dihydroxystyryl)acrylonitrile]
Ph+ ALL cells; Ph+ ALL, colonies at 12 days, FIG. 8
  concentration inhibiting cell growth: 5 µM
Normal bone marrow cells [1]; 20 μM, FIG. 13
  inhibition of BFU-E colony formation: inhibition
